{
  "source": "paper PMC8184781",
  "about": "“A histone H3K4me1-specific binding protein is required for siRNA accumulation and DNA methylation at a subset of loci targeted by RNA-directed DNA methylation” (Nature Communications, 2021)",
  "key": {"[1]": {"tested_on": "RDM15", "experiment": "Co-immunoprecipitation of H3K4me1 with wild-type RDM15, western blot", "assay_type": "binding, Arabidopsis", "details": "wild-type RDM15 (RDM15-3xFLAG/rdm15-3 plants), anti-FLAG IP", "excerpt": "(§1) H3K4me1 mark. a. Histone peptide array assay showing the binding preference of RDM15 to H3K4me1. Error bar represents s.d. (n=3 independent experiments). Data are presented as mean values +/- SD and the dots are the corresponding data points. b. ITC binding curves between the RDM15 tudor domain and H3K4me1 and H4K20me1 peptides indicate that H3K4me1 is the optimal binding partner for […]\n(§2) The RDM15-3xFLAG/rdm15-3 and mutated\n(§3) RDM15-3xMYC/rdm15-3 plants were used to perform protein immunoprecipitation with anti-FLAG and anti-MYC antibodies, respectively, and then anti-H3K4me1 antibody was used to detect H3K4me1 . d. Methylation specific PCR results showing the methylation levels at several RDM15 -dependent RdDM loci. McrBC, an enzyme cleaving methylated DNA, was used to digest genomic DNA from different pla nts with two biological replicates. Stronger PCR signal represent s lower methylation level. RDM15-3xFLAG rescued the hypomethylation phenotype in rdm15-3, however, the Mutated RDM15-3xMYC didn’t rescue the methylation phenotype .\nWe thank the reviewer for their comments. We will response the comments in the following with our response highlighted in red.\nThe authors have fully addressed my concerns.I think this paper meets the standard of a Nature […]\n(§4) Moreover, the H3K4me1 mark has been previously detected by ChIP-seq at whole-genome level in a previous study (Inagaki et al., EMBO J., 2017). […]"}, "[2]": {"tested_on": "mutated RDM15 (W616A/Y623A/D643A/D645A)", "experiment": "Co-immunoprecipitation of H3K4me1 with mutated RDM15, western blot", "assay_type": "binding, Arabidopsis", "details": "mutated RDM15-3xMYC/rdm15-3 plants, anti-MYC IP", "excerpt": "We expressed the mutated RDM15 (W616A/Y623A/D643A/D645A) incapable of binding to H3K4me1 in rdm15-3 mutant plants, generating mutated RDM15-3xMYC/rdm15-3 plants.\nas §1, §2, §3\nWe thank the reviewer for their comments. […]\nas §4"}, "[3]": {"target": "T1, RDM15 Tudor domain (Arabidopsis thaliana, UniProt Q8GUP3)", "T1 construct": "hexahistidine-yeast Sumo (cleaved yes); made in house; host or cells: E. coli BL21(DE3)", "T1 sequence (Q8GUP3 599-663)": "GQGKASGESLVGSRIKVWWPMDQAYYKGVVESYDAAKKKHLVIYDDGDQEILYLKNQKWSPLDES", "experiment": "Isothermal titration calorimetry (ITC), RDM15 Tudor domain (WT)", "assay_type": "binding", "details": "compared with H3K4me0, H3K4me2 and H3K4me3", "procedure": "ITC binding was measured using a Microcal PEAQ-ITC instrument (Malvern). The purified proteins were dialyzed against a buffer containing 100 mM NaCl, 20 mM HEPES, pH 7.0, and 2 mM β-mercaptoethanol and were diluted to a concentration of about 0.8–0.12 mM. The peptide was dissolved in the same buffer with a concentration of about 1.0–1.5 mM. All of the titrations were performed at 20 °C. The data were analyzed using the Origin 7.0 program."}, "[4]": {"target": "T1, RDM15 Tudor domain", "experiment": "Histone peptide array (MODified Histone Peptide Array), GST-fused RDM15", "assay_type": "binding", "details": "several hundred combinations of histone marks", "method": "Histone peptide array assay was performed using the MODified Histone Peptide Array kit (Active Motif) according to the manufacturer’s instructions. In brief, the slide was first blocked for 2 h at room temperature. After it was washed three times with TBST buffer [10 mM Tris·HCl (pH 7.5), 30 mM NaCl, and 0.05% Tween-20], the slide was incubated overnight with […] of GST-fused purified RDM15 protein at 4 °C in […] of binding buffer [50 mM Hepes (pH 8.0), 150 mM NaCl, 2 mM DTT, and 0.05% Nonidet P-40]. After it was washed three additional times with TBST buffer, the slide was incubated with anti-GST primary antibody at 1/3000 dilution and secondary antibody at 1/5000 dilution in TBST buffer for 1 h at room temperature, respectively. After the washing, the slide was visualized using Lumi-light ECL substrate (Roche). The intensity of the blotted slide was analyzed according to the instructions of the analysis software of the MODified Histone Peptide Array."}},
  "data": [
    {"smiles": "CNCCCC[C@H](NC(=O)[C@@H](NC(=O)[C@H](CCCNC(=N)N)NC(=O)[C@H](C)N)[C@@H](C)O)C(=O)N[C@@H](CCC(N)=O)C(=O)N[C@H](C(=O)N[C@@H](C)C(=O)N[C@@H](CCCNC(=N)N)C(=O)N[C@@H](CCCCN)C(=O)N[C@@H](CO)C(=O)N[C@H](C(=O)NCC(=O)NCC(=O)N[C@@H](CCCCN)C(=O)N[C@@H](C)C(=O)O)[C@@H](C)O)[C@@H](C)O", "note": "[H3K4me1]", "values": [
      {"measurement": "Co-immunoprecipitation of H3K4me1", "setting": "[1]", "result": "co-immunoprecipitated by wild-type RDM15"},
      {"measurement": "Co-immunoprecipitation of H3K4me1", "setting": "[2]", "result": "not by mutated RDM15"},
      {"measurement": "Binding in words (ITC)", "setting": "[3]", "result": "bound much more strongly to the monomethylation state of H3K4"},
      {"measurement": "Binding in words (histone peptide array)", "setting": "[4]", "result": "significant binding"}
    ]}
  ]
}
